Series [1] in a line: Sensitising property (test not described). An excerpt:
Das 2-(2,5-Diaminophenyl)ethanol wird seit einiger Zeit als Bestandteil von Oxidationshaarfärbemitteln in der Patentliteratur erwähnt. Als möglicher Bestandteil von Oxidationshaarfärbemitteln ist es zum Beispiel in der eigenen europäischen Offenlegungsschrift 0 166 155 sowie in den eigenen deutschen Offenlegungsschriften 3 625 916, 3 627 398 und 3 706 565 sowie auch in der DE-OS 3 545 371 aufgeführt. Ferner fällt das 2-(2,5-Diaminophenyl)ethanol unter eine allgemeine Formel für 1-Hydroxyalkyl-2,5-diaminobenzolverbindungen, welche als Entwicklersubstanzen für Oxidationshaarfärbemittel in der eigenen europäischen Offenlegungsschrift 0 007 537 empfohlen werden. Die dort mehrfach konkret genannte Verbindung 1-Hydroxymethyl-2,5-diaminobenzol (2,5Diaminobenzylalkohol) hat sich jedoch als sensibilisierend erwiesen. Die ausgezeichnete Eignung der Entwicklersubstanz 2-(2,5-Diaminophenyl)-ethanol in Kombination mit den vorstehend genannten Kupplersubstanzen zur Lösung der gestellten Aufgabe wurde bisher nicht erkannt. Dementsprechend sind die erfindungsgemäßen EntwicklersubstanzKupplersubstanz-Kombinationen in keiner dieser Druckschriften beschrieben.
Die konkrete Darstellung des 2-(2,5-Diaminophenyl)ethanols ist bisher ebenfalls weder beschrieben noch hat diese Entwicklersubstanz Eingang in die Haarfärbepraxis gefunden. […]

Series [2] in a line: Mutagenicity test battery (Ames, CA-Test, Mouse Lymphoma Test, SCE-Test), individual test not specified. To be noted: in some of the tests Ames, not said which. It is filed as cell-based. The source says: (§1) Der große und überraschende technische Fortschritt, der bei der Verwendung von 2-(2,5-Diaminophenyl)ethanol mit den vorstehend genannten Kupplersubstanzen erzielt werden kann, liegt vielmehr in den physiologischen Eigenschaften begründet.

Series [3] can be described thus: Sister-Chromatide-Exchange-Test (SCE-Test). Format: cell-based.
Source text: as §1

In series [4] the test system is Salmonella typhimurium-Stämmen TA97, TA98 und TA100. Nature of the series: Ames test of dyed hair strands. It is filed as cell-based. On the set-up: key: +: mutagen; (+): schwach mutagen; -: nicht mutagen. The conditions noted are these: hair dyed 30 Minuten at 40 Grad Celsius, in Anwesenheit von S9-Mix. The source says:
Versuchsbedingungen: Haarsträhnchen aus 30-50 Haaren werden mit einem Mittel nach Beispiel 1, bei dem die Kupplersubstanz jeweils im äquimolaren Verhältnis zur Entwicklersubstanz enthalten war, getränkt. Die Strähnen wurden anschließend 30 Minuten lang bei 40 Grad Celsius im Klimaschrank aufbewahrt, sodann gründlich mit Wasser gespült und schließlich getrocknet. Die so gefärbten Haar wurden nun im 2,5 cm lange Stücke geschnitten und nach der Methodik von B.N. Ames an Salmonella typhimurium-Stämmen TA97, TA98 und TA100 in Anwesenheit von S9-Mix geprüft.
(In general: In the Ames test, an excess of revertant colonies over the control signals mutagenicity.)

Series [5] has as its system Salmonella typhimurium. The experiment in a line: Ames test of hair dye solutions under oxidative conditions. The conditions noted are these: hair dye solution containing the developer substance, unter oxidativen Bedingungen.
In series [6] the test system is Mouse Lymphoma. The experiment in a line: Mouse Lymphoma Test (point mutation in vitro). Format: cell-based. The conditions noted are these: Punktmutation in vitro.
Source text: as §1

Series [7] deals with Salmonella typhimurium. Nature of the series: Ames mutagenicity test of the developer substance. It is filed as cell-based.
Source text: as §1

Series [8] relates to CHO-Zellen. Nature of the series: Chromosome aberration test in vitro (CA-Test). Format: cell-based.
Source text: as §1

Where [9] appears, read: Kupplersubstanz 2-Methylresorcin, äquimolar to the developer.
[10] abbreviates: Kupplersubstanz 3,4-Methylendioxyphenol, äquimolar to the developer.
Where [11] appears, read: Kupplersubstanz 3-Aminophenol, äquimolar to the developer.
Where [12] appears, read: Kupplersubstanz Resorcin, äquimolar to the developer.

Structures are written as SMILES.

Regarding `Nc1ccc(N)c(CO)c1` [2,5-Diaminobenzylalkohol, 1-Hydroxymethyl-2,5-diaminobenzol], the “sensibilisierende Eigenschaften” value in series [1] is “sensibilisierend”. Besides, the “Mutagenität in einigen dieser Teste” value in series [2] is reported as “mutagenes Potential”.

Consider `Nc1ccc(N)c(CCO)c1` [2-(2,5-Diaminophenyl)ethanol], for which, in series [3], the “Mutagenität im Sister-Chromatide-Exchange-Test (SCE-Test)” value is given as “keinerlei Mutagenität”. In addition, the “Amesteste von gefärbten Haarsträhnen” value in series [4] (setting [9]), in series [4] (setting [10]), in series [4] (setting [11]), in series [4] (setting [12]) and in series [4] (ohne Kupplersubstanz) was “-” each time. The “mutagene Wirkung von Haarfärbelösungen im Amestest” value in series [5] is “nicht mutagen”. Further, the “Mutagenität im Mouse Lymphoma Test” value in series [6] is “keinerlei Mutagenität”. The “Mutagenität im Mutagenitätstest nach Ames” value in series [7] (in Abwesenheit von Wasserstoffperoxid) and in series [7] (in Anwesenheit von Wasserstoffperoxid) was “keinerlei Mutagenität” each time. In addition, the “Mutagenität im Chromosomenaberrationstest an CHO-Zellen in vitro (CA-Test)” value in series [8] was “keinerlei Mutagenität”.

Turning to `Nc1ccc(N)cc1` [p-Phenylendiamin, reference compound], the “Amesteste von gefärbten Haarsträhnen” value in series [4] (setting [9]) was “+”; in series [4] (setting [10]), “+”; in series [4] (setting [11]) it was “(+)”; in series [4] (setting [12]) it was “(+)”; in series [4] (ohne Kupplersubstanz) it was “+”. Also, the “mutagene Wirkung von Haarfärbelösungen im Amestest” value in series [5] is on record as “mutagenes Potential”.
